{"source": "patent US20230391881A1", "about": "“COMPOSITIONS AND METHODS FOR OVERCOMING DR5-INDUCED IMMUNE EVASION BY SOLID TUMORS” (University of Virginia Patent Foundation, priority 2020, published 2023)", "key": {"DR5": {"test_system": "DR5", "sequence (O14763 56-184 limits assumed)": "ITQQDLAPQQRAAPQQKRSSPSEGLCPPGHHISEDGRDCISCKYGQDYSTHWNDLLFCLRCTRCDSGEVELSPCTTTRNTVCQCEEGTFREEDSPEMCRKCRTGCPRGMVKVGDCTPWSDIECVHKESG", "assay": "DR5 knockout (DR5-KO) versus DR5-WT TNBC cells: viability, PD-L1, S5a, ubiquitin", "type": "cell-based, human", "conditions": "for overall ubiquitin signal in lysates: DR5 sensitive versus DR5-KO cells (FIG. 2P)", "method": "In Vitro Cell Viability Assays. Cell viability following Apo2L, lexatumumab, KMTR2, tigatuzumab, AMG-655, MD5-1, avelu-MD5, etc. treatments as indicated in the Figures either alone in combination with inhibitors (ROCK1, ERK, caspase inhibitors, etc.) or in combination with an anti-Fc reagent (For tigatuzumab, AMG-655, MD5-1, etc.) were determined using the ALAMARBLUE™ cell viability assays and MTT cell proliferation assays as per the manufacturer's protocols (ThermoFisher Scientific). Briefly, cells were treated with increasing concentration of various antibodies as indicated along with relevant positive and negative control antibodies for 6 hours, 24 hours, or 48 hours as indicated. For each cell killing assay the figures show the representative profiles from n=2-4 with different cultured confluency. Whenever used for immunoblotting, following antibodies treatment caspase-3 processing in tumor cells was monitored using selective antibodies that recognize cleaved human caspase-3 or total caspase-3 (Catalog Nos. 9661 and 9668; Cell Signaling Technology, Danvers, Massachusetts, United States of America). TRAIL-R2 receptor in oligomerization was determined using immunoblotting assays (Cell Signaling Technology Rabbit mAb, Catalog No. 8074). Cell viability was additionally examined by flow cytometry based apoptotic detection methods using 7-aminoactinomycin D (7-ADD) exclusion from live cells.\nWestern Blotting. Cells were cultured overnight in tissue culture-treated 6-well plates prior to treatment. After antibody treatment for 48 hours or another indicated time, cells were rinsed with PBS and then lysed with RIPA buffer supplemented with protease inhibitor cocktail (ThermoFisher Scientific). Centrifugation at 14000 rpm for 30 minutes cleared lysates and protein was quantified by PIERCE™ BCA Protein Assay Kit (ThermoFisher Scientific). Western blotting was performed using the Bio-Rad SDS-PAGE Gel system. Briefly, 30 μg of protein was resolved on 10% Bis-Tris gels and then transferred onto PVDF membrane. Membranes were blocked for one hour at room temperature in TBS+0.1% Tween (TBST) with 5% non-fat dry milk. Membranes were probed overnight at 4° C. with primary antibodies. Membranes were washed three times in TBST and then incubated with anti-rabbit or anti-mouse secondary antibodies (1/10,000 dilution, coupled to peroxidase) for 1 hour at room temperature. Membranes were then washed three times with TBST and immunocomplexes were detected with SUPERSIGNAL™ West Pico Chemiluminescent Substrate (ThermoFisher Scientific). […]\nFlow cytometry. The cell surface expression of PD-L1, CD47, huDR5, muDR5, CD8, CD4, CD25 etc. was analyzed by flow cytometry. […] The data was analyzed by FCS Express (De Novo Software, Los Angeles, California, United States of America) and FlowJo. […]"}, "[1]": {"test_system": "chi-G4S-DR5 stable 4T1 tumors", "assay": "Surface PD-L1 flow cytometry of cells recovered from Chi-G4S-DR5 stable 4T1 tumors", "type": "in vivo, mouse", "conditions": "4 doses; flow cytometry of recovered tumors (FIGS. 5G, 23)", "source_text": "Mechanical dissociation of tumors to obtain single-cell suspensions. Viable single cells from tumor tissues were isolated as described in Leelatian et al, 2017. Briefly, after indicated antibody treatments (4-6 doses) mice were euthanized and tumors were harvested using sterile scissors and forceps. After excision of tumor, they were minced into small pieces in sterile RPMI-1640 media using two single-edged razor blades. Small tumor pieces were passed through a 70 µm cell strainer in sterile RPMI-1640 media. A rubber plunger and syringe were used to mesh the dissociated cells through the cell strainer and media containing dissociated cells was collected onto a sterile labeled conical tube. Dissociated tumor cells were subjected to flow cytometry (FACS) analysis for PD-L1, DR5, N-cadherin, FOLR1, CD47 etc. surface expression as described under flow cytometry protocol.\nPD-L1 surface expression analysis of tumor derived cells. The cell surface expression of PD-L1 from tumor-derived cell was analyzed by flow cytometry. Isolated cells were suspended in FACS buffer (PBS containing 1% FBS). […] The data was analyzed by FCS Express (De Novo Software) and FlowJo software.\nChimeric DR5 cloning and Human DR5 agonist testing studies in Balb/c animals. […] Tumors were monitored as described herein above. […]"}, "MDA-MB-436 cells": {"test_system": "MDA-MB-436 cells", "assay": "Flow cytometry of surface PD-L1 on tumor cells treated with DR5 agonist antibodies (FIG. 20B)", "type": "cell-based, human", "method": "FIGS. 20A-20C. (FIG. 20A) 3 biological replicates of total PD-L1 and GAPDH from triple negative breast cancer cell (MDAMB-436) and ovarian cell (OVCAR-3) lysates treated with lexatumumab for 6 hours. (FIG. 20B) Raw mean fluorescent intensity (MFI) and % positive PD-L1 counts from the cells treated with indicated DR5 agonist antibodies. MFI values are shown on the top of solid color bars. There are multiple instances (shown on the top) where despite having lower % positive PD-L1 population, MFI values were higher after indicated DR5 agonist treatments. As an example, in MDA-MB-436 cells treated with tigatuzumab and lexatumumab, lexatumumab treated cells had higher % positive PD-L1 population (9.32 vs 11.97), however MFI was higher in tigatuzumab treated population (107.54 vs 45.87). (FIG. 20C) KMTR2 treated (50 μg, 4 doses) UCD52 TNBC PDX tumors were stained for PD-L1 using immunohistochemistry (IHC). 3 additional representative images are shown. Also see FIG. 1L.\n(§1) Flow cytometry. The cell surface expression of PD-L1, CD47, huDR5, muDR5, CD8, CD4, CD25 etc. was analyzed by flow cytometry. Overnight grown tumors were trypsinized and suspended in FACS buffer (PBS containing 2% FBS). Single cell suspensions were then incubated with primary DR4/DR5 antibodies for 1 hour at 4° C. with gentle mixing. Following wash with FACS buffer, the cells were then incubated with fluorescently labeled anti-Rabbit antibody for 1 hour. Cells were washed and flow cytometry was performed using a BD FACSCALIBUR™ flow cytometer. The data was analyzed by FCS Express (De Novo Software, Los Angeles, California, United States of America) and FlowJo.\nPD-L1 surface expression analysis of tumor derived cells. The cell surface expression of PD-L1 from tumor-derived cell was analyzed by flow cytometry. Isolated cells were suspended in FACS buffer (PBS containing 1% FBS). The single cell suspension was then incubated with primary PD-L1 antibodies (1:400 dilution) for 1 hour at 4° C. with gentle mixing. […] Following 3 times wash with FACS buffer, the cells were then incubated with fluorescently labeled (alexa 488) anti-Rabbit secondary antibody for 1 hour. Cells were then washed 3-4 times with FACS buffer and flow cytometry was performed using BD FACSCALIBUR™. The data was analyzed by FCS Express (De Novo Software) and FlowJo software."}, "UCD52 TNBC PDX tumors": {"test_system": "UCD52 TNBC PDX tumors", "assay": "PD-L1 IHC of KMTR2 treated UCD52 TNBC PDX tumors", "type": "in vivo, mouse", "conditions": "KMTR2 50 μg, 4 doses; NSG mice"}, "[2]": {"test_system": "DR5-KO (MDA-MB-231) cells", "assay": "ApoEV isolation and PD-L1 transfer to DR5-KO cells", "type": "cell-based, human", "conditions": "ApoEVs from treated DR5-WT cells", "method": "FIG. 12. TNF-α stabilized PD-L1 is not shuttled to ApoEVs. ApoEVs were isolated from DR5-WT MDA-MB-436 and OVCAR-3 cells after treatment with IgG1, TNF-α and lexatumumab. Isolated ApoEVs were incubated on to DR5-KO (MDA-MB-231) cells. After 24 hours surface PD-L1 of DR5-KO cells was analyze by flow cytometry. Top panel show secondary antibody control, IgG1 treatment control and basal level PD-L1 levels on MDA-MB-231 DR5 KO cells.\nApoEV isolation. 4×10^6 cells were seeded onto 3×150 mm dishes in a total volume of 45 ml of DMEM supplemented with 10% exosome-free FBS and grown for 12 hours. Media of each plate was changed with serum-free medium and incubate the cells at 37° C. for 6-12 hours, with or without various antibody treatments. For all ApoEV studies, the tissue culture media was spun at 8000×g for 15 minutes. The pellet was discarded and the supernatants (SN) were passed through 0.22 um filter. ApoEVs were isolated by the ultracentrifugation method. Collected tissue culture media was spun at 5,000×g for 10 minutes to remove contaminating cellular particles, and the resulting supernatant was spun at 80,000×g for 4 hours at 4° C. to pellet ApoEVs. ApoEV pellets were resuspended in 500 μl of serum-free medium and were used for either cellular treatments, dot blots assays and immunoblotting assays."}, "PD-L1": {"test_system": "PD-L1", "assay": "Western blotting / flow cytometry of PD-L1 and regulators in tumor cells", "type": "cell-based, human", "conditions": "ovarian and TNBC tumor cells", "method": "Western Blotting. Cells were cultured overnight in tissue culture-treated 6-well plates prior to treatment. After antibody treatment for 48 hours or another indicated time, cells were rinsed with PBS and then lysed with RIPA buffer supplemented with protease inhibitor cocktail (ThermoFisher Scientific). Centrifugation at 14000 rpm for 30 minutes cleared lysates and protein was quantified by PIERCE™ BCA Protein Assay Kit (ThermoFisher Scientific). Western blotting was performed using the Bio-Rad SDS-PAGE Gel system. Briefly, 30 μg of protein was resolved on 10% Bis-Tris gels and then transferred onto PVDF membrane. Membranes were blocked for one hour at room temperature in TBS+0.1% Tween (TBST) with 5% non-fat dry milk. Membranes were probed overnight at 4° C. with primary antibodies. Membranes were washed three times in TBST and then incubated with anti-rabbit or anti-mouse secondary antibodies (1/10,000 dilution, coupled to peroxidase) for 1 hour at room temperature. Membranes were then washed three times with TBST and immunocomplexes were detected with SUPERSIGNAL™ West Pico Chemiluminescent Substrate (ThermoFisher Scientific). Images were taken using a Bio-Rad Gel Doc Imager system.\nas §1"}}}
{"substance": "lexatumumab: Monospecific Antibody, Human DR5 activator; VL and VH SEQ ID NOs: 1 and 2", "values": [{"measurement": "overall ubiquitin signal in lysates", "setting": "DR5", "value": "increased only in DR5 sensitive cell lysates"}, {"measurement": "PD-L1 on cell surface of tumor cells", "setting": "[1]", "value": "higher overall PD-L1 on cell surface"}, {"measurement": "PD-L1 mean fluorescent intensity (MFI)", "setting": "MDA-MB-436 cells; MDA-MB-436 cells treated with DR5 agonist antibody (FIG. 20B)", "value": 45.87}, {"measurement": "% positive PD-L1 population", "setting": "MDA-MB-436 cells; MDA-MB-436 cells treated with DR5 agonist antibody, raw flow cytometry counts (FIG. 20B)", "value": 11.97, "unit": "%"}]}
{"substance": "KMTR2: Monospecific Antibody, Human DR5 activator; VL and VH SEQ ID NOs: 7 and 8", "values": [{"measurement": "overall ubiquitin signal in lysates", "setting": "DR5", "value": "increased only in DR5 sensitive cell lysates"}, {"measurement": "PD-L1 stabilization by IHC", "setting": "UCD52 TNBC PDX tumors", "value": "PD-L1 stabilization was also confirmed"}]}
{"substance": "TNF-α", "values": [{"measurement": "PD-L1 in ApoEVs / shuttling of PD-L1 via ApoEVs", "setting": "[2]", "value": "did not shuttle significant amount of PD-L1 via ApoEVs"}, {"measurement": "PD-L1 stabilization / surface mobilization in DR5-KO lines", "setting": "DR5; DR5-KO compared to DR5-WT cells", "value": "remained unchanged"}, {"measurement": "S5a/PSMD4 levels", "setting": "DR5; MDA-MB-436 WT and DR5-KO cells", "value": "stabilized PD-L1 without affecting S5a levels"}, {"measurement": "PD-L1 and CSN5 stabilization in lysates", "setting": "PD-L1", "value": "stabilized both PD-L1 and CSN5"}]}
